The test deals with T1, human tyrosinase (Homo sapiens, UniProt P14679).
T1 sequence (P14679 19-529): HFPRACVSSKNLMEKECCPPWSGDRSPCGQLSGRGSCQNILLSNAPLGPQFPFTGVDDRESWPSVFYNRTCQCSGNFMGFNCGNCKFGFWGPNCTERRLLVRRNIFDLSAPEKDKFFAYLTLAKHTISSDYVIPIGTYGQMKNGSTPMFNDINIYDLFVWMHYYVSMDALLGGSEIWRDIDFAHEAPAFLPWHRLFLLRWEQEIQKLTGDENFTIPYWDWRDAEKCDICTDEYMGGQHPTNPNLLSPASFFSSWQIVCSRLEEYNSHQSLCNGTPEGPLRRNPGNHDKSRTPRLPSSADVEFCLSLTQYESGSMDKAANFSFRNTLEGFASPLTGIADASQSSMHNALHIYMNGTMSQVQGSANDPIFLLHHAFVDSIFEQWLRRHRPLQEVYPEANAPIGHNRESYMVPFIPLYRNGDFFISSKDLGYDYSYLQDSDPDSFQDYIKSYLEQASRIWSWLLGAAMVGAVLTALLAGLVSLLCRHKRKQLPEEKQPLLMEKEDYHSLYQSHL
The test is described as follows: Enzyme test: conversion of L-DOPA to L-dopaquinone by a human tyrosinase (MBTH, absorption at 490 nm). The format is biochemical. As to conditions: concentration 10 μg/ml, inhibition of the tyrosinase activity; for inhibition at 10 µg/mL: read-out: Inhibition (% of the control). Here is the method: Method Description of the Effectiveness Investigations:
In this literature-known method (Winder, A. J. and Harris, H., New assays for the tyrosine hydroxylase and dopa oxidase activities of tyrosinase. Eur. J. Biochem. (1991), 198, 317-26), the reaction product L-dopaquinone is reacted with MBTH (3-methyl-2-benzothiazoline hydrazone) to give a pink-colored substance, the increase of which is measured over the time by absorption at 490 nm. […] It can be concluded from this that the substances according to the invention are extremely effective pigmentation-inhibiting substances.

Data on 13 molecules can be found in US9533963B2, “Alkylamidothiazoles, cosmetic or dermatological preparations containing said alkylamidothiazoles, and use thereof to combat or prevent undesired pigmentation of the skin” (BEIERSDORF AG, priority 2011, dated 2017).

For orientation: inhibition means the percentage by which the read-out fell short of the control. For `CCCNc1nc(-c2ccc(O)cc2O)cs1` [4-(2-(Propylamino)thiazol-4-yl)benzene-1,3-diol, reference compound], the inhibition at 10 µg/mL worked out at 88%.

For the molecule `CCCCCCC(=O)Nc1nc(-c2ccc(O)cc2O)cs1` [N-(4-(2,4-Dihydroxyphenyl)thiazol-2-yl)heptanamide], the inhibition at 10 µg/mL was found to be 66%.

For `CC(C)C(=O)Nc1nc(-c2ccc(O)cc2O)cs1` [N-(4-(2,4-Dihydroxyphenyl)thiazol-2-yl)isobutyramide], the inhibition at 10 µg/mL is 94%.

On to `O=C(Cc1ccc(CO)cc1)Nc1nc(-c2ccc(O)cc2O)cs1` [N-(4-(2,4-Dihydroxyphenyl)thiazol-2-yl)-2-(4-(hydroxymethyl)phenyl)acetamide], for which the inhibition at 10 µg/mL was found to be 88%.

As for `Oc1ccc(-c2csc(NC3CCCCC3)n2)c(O)c1` [4-(2-(Cyclohexylamino)thiazol-4-yl)benzene-1,3-diol, reference compound], the inhibition at 10 µg/mL is 70%.

Regarding `CCCCCCNc1nc(-c2ccc(O)cc2O)cs1` [4-(2-(Hexylamino)thiazol-4-yl)benzene-1,3-diol, reference compound], the inhibition at 10 µg/mL was 41%.

On to `CC(C)Nc1nc(-c2ccc(O)cc2O)cs1` [4-(2-Isopropylamino)thiazol-4-yl)benzene-1,3-diol, reference compound], for which the “Inhibition (% of the control)” value worked out at 91%.

As for `O=C(Nc1nc(-c2ccc(O)cc2O)cs1)C1CCCCC1` [N-(4-(2,4-Dihydroxyphenyl)thiazol-2-yl)cyclohexanecarboxamide], the inhibition at 10 µg/mL stood at 92%.

For `OCc1ccc(Nc2nc(-c3ccc(O)cc3O)cs2)cc1` [4-(2-((4-(Hydroxymethyl)phenyl)amino)thiazol-4-yl)benzene-1,3-diol, reference compound], the inhibition at 10 µg/mL is 93%.

As for `CC(C)(C)Nc1nc(-c2ccc(O)cc2O)cs1` [4-(2-(tert-Butylamino)thiazol-4-yl)benzene-1,3-diol, reference compound], the inhibition at 10 µg/mL stood at 62%.

In the case of `O=C(Nc1nc(-c2ccc(O)cc2O)cs1)C1CCC(CO)CC1` (stereo not shown) [N-(4-(2,4-Dihydroxyphenyl)thiazol-2-yl)-4-(hydroxymethyl)cyclohexanecarboxamide], the inhibition at 10 µg/mL was determined as 94%.

For `CCCC(=O)Nc1nc(-c2ccc(O)cc2O)cs1` [N-(4-(2,4-Dihydroxyphenyl)thiazol-2-yl)butyramide], the inhibition at 10 µg/mL was 95%.

Consider `CC(C)(C)C(=O)Nc1nc(-c2ccc(O)cc2O)cs1` [N-(4-(2,4-Dihydroxyphenyl)thiazol-2-yl)pivalamide], for which the inhibition at 10 µg/mL came out at 96%.
